Where a SMILES comes first, the peptide text is derived from it. [ ]: non-standard residue; d: D form.
Test system: K. pneumoniae clinical isolates
Experimental: Subcultures, prepared by inoculating 25 mL of fresh tryptic soy broth (TSB) with 200 μL of an overnight culture, were grown to log phase (OD600 = 0.3–0.6), after which cell counts were determined by measuring the OD600 (1.0 = 5 × 10^8 CFU/mL for E. coli, 4 × 10^8 CFU/mL for K. pneumoniae, 4 × 10^8 CFU/mL for P. aeruginosa, 1.5 × 10^8 CFU/mL for S. aureus). Bacterial cells were diluted to appropriate concentrations in TSB. We used the following clinical bacterial isolates of Klebsiella pneumoniae in this study: Strains KP6, KP46, NDM-1, KP396, and KP398 have been previously described.[43] ST58 strains C2, C3, and I2 are also described.[41] […] MRSA, […] S. aureus strain, is SAP400, a USA400 strain of community-acquired MRSA. […] The second independent set of K. pneumoniae isolates are previously described.[20],[21]
The antibiotics were serially diluted by a factor of 2:3 horizontally across 96-well plates from Corning, 25 μL per well. One column was reserved for controls. For the assays performed in the presence of RBC, type O+ human RBCs at 0 or 2.5 × 10^9 cells/mL were added in 50 μL aliquots to all wells. Following a 30-min incubation, 50 μL of TSB, inoculated with 5 × 10^5 CFU/mL, was added to all wells, and plates were incubated overnight at 37 °C. Following overnight incubation at 37 °C, the OD600 was measured (values of less than 0.1 were considered sterilized). To assess bacterial growth in the assays with RBC, the OD600 was measured after a second-day inoculation with 10 μL of solution from the original plate added to 100 μL of sterile TSB followed by overnight incubation.
Experiments were repeated four to eight times independently, with pairs of replicate measurements on each 96-well plate. After overnight growth, optical densities were measured at 660 nm and the sterilized wells were identified by having O.D. < 0.08. Nonsterilized wells were nearly opaque with OD > 0.6. For each measurement, we recorded the largest dilution that sterilized the bacteria. Statistics are done on dilution numbers, rather than calculated concentrations, because only the former have normal distributions.

CC(C)C[C@@H](NC(=O)[C@@H](CCC(N)=O)NC(=O)[C@@H](CCCNC(=N)N)NC(=O)[C@@H](CCCNC(=N)N)NC(=O)[C@@H](C)NC(=O)[C@@H](Cc1c[nH]c2ccccc12)NC(=O)[C@@H](CCCNC(=N)N)NC(=O)[C@H](N)CCCNC(=N)N)C(=O)N[C@H](C)C(=O)N[C@H](Cc1ccccc1)C(=O)N[C@H](C)C(=O)N[C@H](Cc1ccccc1)C(=O)N[C@H](CCCNC(=N)N)C(=O)N[C@H](CCCNC(=N)N)C(N)=O [D-CONGA-Q7] (H-[dR][dR][dW][dA][dR][dR][dQ][dL][dA][dF][dA][dF][dR][dR]-NH2; N-terminus assumed) was tested, and the “K. Pneumoniae Isolate MIC, 1000527” value was 6.8 µM, the “K. Pneumoniae Isolate MIC, 1002565” value was 5.1 µM and the “K. Pneumoniae Isolate MIC, 1100770” value was 5.1 µM. The “K. Pneumoniae Isolate MIC, 1100975” value was 3.4 µM, the “K. Pneumoniae Isolate MIC, ATCC 43816” value was 6.8 µM and the “K. Pneumoniae Isolate MIC, ATCC 700721” value was 6.8 µM. For the same molecule, the “K. Pneumoniae Isolate MIC, K6” value was 3.4 µM, the “K. Pneumoniae Isolate MIC, K 6.1” value was 3.4 µM and the “K. Pneumoniae Isolate MIC, K 6.2” value was 5.1 µM. For the same molecule, the “K. Pneumoniae Isolate MIC, KP 80” value was 3.4 µM, the “K. Pneumoniae Isolate MIC, KP NIH 1” value was 6.8 µM and the “K. Pneumoniae Isolate MIC, KP NIH 10” value was greater than 25 µM. The “K. Pneumoniae Isolate MIC, KP NIH 24” value was 6.8 µM, the “K. Pneumoniae Isolate MIC, KP NIH 27” value was 3.4 µM and the “K. Pneumoniae Isolate MIC, KP NIH 29” value was 2.5 µM. The “K. Pneumoniae Isolate MIC, KP NIH 30” value was 3.4 µM, the “K. Pneumoniae Isolate MIC, KP NIH 31” value was 3.4 µM and the “K. Pneumoniae Isolate MIC, KP NIH 32” value was 6.8 µM. For the same molecule, the “K. Pneumoniae Isolate MIC, KP NIH 33” value was 1.3 µM.
